These results are taken from US7524853B2 (Solvay Pharmaceuticals B.V., priority 2003, dated 2009).

Common to all, as to format: cell-based
The target of test [1] is T1, 17β-hydroxysteroid dehydrogenase type 3 (17β-HSD type 3) (Homo sapiens, UniProt P37058).
T1 construct: expressed in transfected cells; host or cells: MCF-7
T1 sequence (P37058 1-310): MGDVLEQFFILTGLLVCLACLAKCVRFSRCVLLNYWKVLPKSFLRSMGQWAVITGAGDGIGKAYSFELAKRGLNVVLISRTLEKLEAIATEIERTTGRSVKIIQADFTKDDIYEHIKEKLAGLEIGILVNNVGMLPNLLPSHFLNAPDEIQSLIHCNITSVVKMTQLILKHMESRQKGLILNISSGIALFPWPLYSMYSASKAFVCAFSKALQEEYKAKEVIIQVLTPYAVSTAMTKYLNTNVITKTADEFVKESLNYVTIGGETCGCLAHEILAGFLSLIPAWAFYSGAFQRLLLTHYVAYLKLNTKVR
In words: Inhibition of 17β-HSD type 3 in MCF-7 cells stably expressing the isoenzyme (tritium labeled androstenedione conversion, HPLC). The conditions noted are these: MCF-7 cells expressing 17β-HSD type 3, 2 nM tritium labeled androstenedione; for inhibition at 1 µM / inhibition at 10 µM: MCF7; for inhibition at 1 µM / % Inhibition HSD3 1 μM: 1 μM test compound; for inhibition at 1 µM: read-out: % Inhibition HSD3 1 μM; for inhibition at 10 µM / % Inhibition HSD3 10 μM: 10 μM test compound; for inhibition at 10 µM: read-out: % Inhibition HSD3 10 μM. The procedure, abridged: (§1)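 MCF-7 lines stably expressing each 17β-HSD isoenzyme incubated in growth medium with compound at two concentrations and 2 nM tritiated substrate (estrone, type 1; estradiol, type 2; androstenedione, type 3). Reaction stopped with TCA; conversion measured by HPLC with flow scintillation, inhibition relative to compound-free control.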

Test [2] has as its target T2, 17β-hydroxysteroid dehydrogenase type 1 (17β-HSD type 1) (Homo sapiens, UniProt P14061).
T2 construct: expressed in transfected cells; host or cells: MCF-7
T2 sequence (P14061 1-328): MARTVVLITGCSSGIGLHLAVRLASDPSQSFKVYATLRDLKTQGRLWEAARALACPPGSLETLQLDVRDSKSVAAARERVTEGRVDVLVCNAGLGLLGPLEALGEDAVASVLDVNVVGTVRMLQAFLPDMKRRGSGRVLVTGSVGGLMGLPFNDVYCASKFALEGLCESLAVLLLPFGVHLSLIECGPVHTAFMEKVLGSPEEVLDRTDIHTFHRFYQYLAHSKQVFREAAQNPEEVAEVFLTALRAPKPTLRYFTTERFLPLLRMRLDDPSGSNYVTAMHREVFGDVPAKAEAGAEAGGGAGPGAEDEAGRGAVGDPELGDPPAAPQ
Briefly: Inhibition of 17β-HSD type 1 in MCF-7 cells stably expressing the isoenzyme (tritium labeled estrone conversion, HPLC). The settings on record: MCF-7 cells expressing 17β-HSD type 1, 2 nM tritium labeled estrone; for inhibition at 1 µM / inhibition at 10 µM: MCF7; for inhibition at 1 µM / % Inhibition HSD1 1 μM: 1 μM test compound; for inhibition at 1 µM: read-out: % Inhibition HSD1 1 μM; for inhibition at 10 µM / % Inhibition HSD1 10 μM: 10 μM test compound; for inhibition at 10 µM: read-out: % Inhibition HSD1 10 μM. The procedure, abridged:
as §1

Test [3] addresses T3, 17β-hydroxysteroid dehydrogenase type 2 (17β-HSD type 2) (Homo sapiens, UniProt P37059).
T3 construct: expressed in transfected cells; host or cells: MCF-7
T3 sequence (P37059 1-387): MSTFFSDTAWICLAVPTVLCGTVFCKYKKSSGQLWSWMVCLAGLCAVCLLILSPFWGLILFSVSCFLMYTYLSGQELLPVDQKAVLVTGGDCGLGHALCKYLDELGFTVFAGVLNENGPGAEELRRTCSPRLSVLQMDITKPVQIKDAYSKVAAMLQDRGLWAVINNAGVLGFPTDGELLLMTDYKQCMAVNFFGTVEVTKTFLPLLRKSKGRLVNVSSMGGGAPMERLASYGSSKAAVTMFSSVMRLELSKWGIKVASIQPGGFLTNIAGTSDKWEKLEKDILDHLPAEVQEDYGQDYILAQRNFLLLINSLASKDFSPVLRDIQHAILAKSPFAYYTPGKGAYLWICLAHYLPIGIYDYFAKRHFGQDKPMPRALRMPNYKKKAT
In words: Inhibition of 17β-HSD type 2 in MCF-7 cells stably expressing the isoenzyme (tritium labeled estradiol conversion, HPLC). The conditions noted are these: MCF-7 cells expressing 17β-HSD type 2, 2 nM tritium labeled estradiol; for inhibition at 1 µM / inhibition at 10 µM: MCF7; for inhibition at 1 µM / % Inhibition HSD2 1 μM: 1 μM test compound; for inhibition at 1 µM: read-out: % Inhibition HSD2 1 μM; for inhibition at 10 µM / % Inhibition HSD2 10 μM: 10 μM test compound; for inhibition at 10 µM: read-out: % Inhibition HSD2 10 μM. In short, it runs like this:
as §1

As usually defined, the inhibition is the drop in the measured response relative to a control, in per cent. On to `COc1cc(-c2nc3sc4c(OC)cccc4c3c(=O)n2Cc2ccccc2)c(Br)c(OC)c1OC` [No. 91, 3-Benzyl-8-methoxy-2-(2-bromo-3,4,5-trimethoxyphenyl)-3H-benzo[4,5]thieno[2,3-d]pyrimidin-4-one], for which the results for the inhibition at 1 µM in test [1], in test [2] and in test [3] were 3.7%, 21.5% and 28.2%, respectively. Besides, the inhibition at 10 µM in test [1] amounted to 18.1%; in test [2], 26.1%; in test [3] it was 33.7%.

On to `COCCn1c(-c2cccs2)nc2sc3c(O)c(Br)ccc3c2c1=O` [No. 148, 7-Bromo-8-hydroxy-3-(2-methoxyethyl)-2-thiophen-2-yl-3H-benzo[4,5]thieno[2,3-d]pyrimidin-4-one], for which the results for the inhibition at 1 µM in test [1], in test [2] and in test [3] were 53.7%, 27% and 29.1%, respectively. The inhibition at 10 µM in test [1] is 97.9%; in test [2], 53.2%; in test [3], 42%.

For `COc1c(O)cc(-c2nc3sc4c(c3c(=O)n2-c2ccccc2)CCCC4)cc1O` [No. 42, 3-Phenyl-2-(3,5-dihydroxy-4-methoxyphenyl)-5,6,7,8-tetrahydro-3H-benzo[4,5]thieno[2,3-d]pyrimidin-4-one], the values for the inhibition at 1 µM in test [1], in test [2] and in test [3] were 3.2%, 26.8% and -1.9%, respectively. The inhibition at 10 µM is 4% in test [1], 56% in test [2] and -0.5% in test [3].

For `CCCCn1c(CCC2CCCC2)nc2sc3c(O)cccc3c2c1=O` [No. 634], in test [1], the “% Inhibition HSD3 1 μM” value worked out at 13.3% and the “% Inhibition HSD3 10 μM” value stood at 56.4%. In addition, in test [2], the “% Inhibition HSD1 1 μM” value was 16.8% and the “% Inhibition HSD1 10 μM” value was determined as 17.9%. In test [3], the “% Inhibition HSD2 1 μM” value is recorded as 16.8% and the “% Inhibition HSD2 10 μM” value amounted to 20.1%.

Turning to `COc1cc(-c2nc3sc4c(Sc5ccccc5)c(C=O)ccc4c3c(=O)n2Cc2ccccc2)cc(OC)c1OC` [No. 9, 3-Benzyl-4-oxo-8-phenylsulfanyl-2-(3,4,5-trimethoxyphenyl)-3,4-dihydro-benzo[4,5]thieno[2,3-d]pyrimidine-7-carbaldehyde], the results for the inhibition at 1 µM in test [1], in test [2] and in test [3] were 2.7%, 31.9% and -2.6%, respectively. Also, the inhibition at 10 µM was 1.4% in test [1], 29.9% in test [2] and -8.9% in test [3].

As to `O=C(OCCn1c(-c2cccs2)nc2sc3c(c2c1=O)CCCC3)c1cccs1` [No. 69, Thiophene-2-carboxylic acid 2-(4-oxo-2-thiohen-2-yl-5,6,7,8-tetrahydro-4H-benzo[4,5]thieno[2,3-d]pyrimidin-3-yl)-ethyl ester], the values for the inhibition at 1 µM in test [1], in test [2] and in test [3] were -1.1%, 4.7% and 10.8%, respectively. The results for the inhibition at 10 µM in test [1], in test [2] and in test [3] were 3.9%, 10.5% and 11.9%, respectively.

Turning to `COCc1nc2sc3c(c2c(=O)n1Cc1ccccc1)CCCC3=O` [No. 31, 3-Benzyl-2-methoxymethyl-6,7-dihydro-3H,5H-benzo[4,5]thieno[2,3-d]pyrimidine-4,8-dione], the inhibition at 1 µM in test [1] is -1.3%; in test [2], 12%; in test [3], -0.5%. The values for the inhibition at 10 µM in test [1], in test [2] and in test [3] were 10.8%, 39.7% and 5.1%, respectively.

With `CCCCn1c(-c2cccs2)nc2sc3c(c2c1=O)CCCC3=O` [No. 134, 3-Butyl-2-thiophen-2-yl-6,7-dihydro-3H,5H-benzo[4,5]thieno[2,3-d]pyrimidine-4,8-dione], the inhibition at 1 µM in test [1] is 17.2%; in test [2] it was 16%; in test [3], 9.9%. The inhibition at 10 µM in test [1] came out at 21.6%; in test [2], 7.9%; in test [3] it was 11.6%.

With `COc1cc(-c2nc3sc4c(O)cccc4c3c(=O)n2Cc2ccccc2)cc(OC)c1OC` [No. 53, 3-Benzyl-8-hydroxy-2-(3,4,5-trimethoxyphenyl)-3H-benzo[4,5]thieno[2,3-d]pyrimidin-4-one], the values for the inhibition at 1 µM in test [1], in test [2] and in test [3] were 32.2%, 52.2% and 22.4%, respectively. Also, the inhibition at 10 µM stood at 52.7% in test [1], 71% in test [2] and 60% in test [3].

Regarding `COc1cc(-c2nc3sc4c(c3c(=O)n2Cc2ccccc2)CCC(Br)(Br)C4=O)c(Br)c(OC)c1OC` [No. 48, 3-benzyl-7,7-dibromo-2-(2-bromo-3,4,5-trimethoxyphenyl)-6,7-dihydro-3H,5H-benzo[4,5]thieno[2,3-d]pyrimidine-4,8-dione], the inhibition at 1 µM in test [1] worked out at 33.7%; in test [2], 27.4%; in test [3], 0.8%. Also, the inhibition at 10 µM amounted to 23.4% in test [1], 36.5% in test [2] and 25.6% in test [3].

Consider `COc1cc(-c2nc3sc4c(c3c(=O)n2CC2CCCO2)CCC(Br)C4=O)c(Br)c(OC)c1OC` (stereo not drawn) [No. 132, 7-Bromo-2-(2-bromo-3,4,5-trimethoxyphenyl)-3-(tetrahydrofuran-2-ylmethyl)-6,7-dihydro-3H,5H-benzo[4,5]thieno[2,3-d]pyrimidine-4,8-dione], for which the inhibition at 1 µM was determined as 16.9% in test [1], 23.8% in test [2] and 22.8% in test [3]. Also, the inhibition at 10 µM in test [1] was 24.9%; in test [2], 53.9%; in test [3], 16.9%.

Take `COc1ccc(-c2nc3sc4c(c3c(=O)n2Cc2ccccc2)CCC(C=O)=C4Cl)cc1` [No. 14]: the inhibition at 1 µM came to 22.7% in test [1], 8.6% in test [2] and 0.5% in test [3]. Further, the inhibition at 10 µM in test [1] stood at 80.8%; in test [2] it was 29.7%; in test [3], 18.8%.

With `CC(C)=Cc1nc2sc3c(O)cccc3c2c(=O)n1Cc1ccccc1` [No. 667], in test [1], the “% Inhibition HSD3 1 μM” value stood at 16.9% and the “% Inhibition HSD3 10 μM” value was 37.0%. Also, in test [2], the “% Inhibition HSD1 1 μM” value is reported as 20.1% and the “% Inhibition HSD1 10 μM” value was 51.9%. Besides, in test [3], the “% Inhibition HSD2 1 μM” value is on record as 20.9% and the “% Inhibition HSD2 10 μM” value was 63.7%.

For `COCc1nc2sc3c(c2c(=O)n1-c1ccccc1)CCCC3` [No. 36, 2-Methoxymethyl-3-phenyl-5,6,7,8-tetrahydro-3H-benzo[4,5]thieno[2,3-d]pyrimidin-4-one], the inhibition at 1 µM in test [1] is -0.9%; in test [2], 20.7%; in test [3], -6.8%. For the same molecule, the inhibition at 10 µM turned out to be 7.6% in test [1], 22.4% in test [2] and 28.7% in test [3].
